Laboratory results from patent publication US20220009920A1 (GB005, Inc., priority 2020, published 2022).

Legend:
Test in all cases: Large panel kinase profiling
Type in all cases: biochemical
Settings in all cases: 1 μM test article, 1 mM ATP
[1] = biological target: T1, EPHB2 (Homo sapiens, UniProt P29323)
T1 sequence (P29323 19-1055): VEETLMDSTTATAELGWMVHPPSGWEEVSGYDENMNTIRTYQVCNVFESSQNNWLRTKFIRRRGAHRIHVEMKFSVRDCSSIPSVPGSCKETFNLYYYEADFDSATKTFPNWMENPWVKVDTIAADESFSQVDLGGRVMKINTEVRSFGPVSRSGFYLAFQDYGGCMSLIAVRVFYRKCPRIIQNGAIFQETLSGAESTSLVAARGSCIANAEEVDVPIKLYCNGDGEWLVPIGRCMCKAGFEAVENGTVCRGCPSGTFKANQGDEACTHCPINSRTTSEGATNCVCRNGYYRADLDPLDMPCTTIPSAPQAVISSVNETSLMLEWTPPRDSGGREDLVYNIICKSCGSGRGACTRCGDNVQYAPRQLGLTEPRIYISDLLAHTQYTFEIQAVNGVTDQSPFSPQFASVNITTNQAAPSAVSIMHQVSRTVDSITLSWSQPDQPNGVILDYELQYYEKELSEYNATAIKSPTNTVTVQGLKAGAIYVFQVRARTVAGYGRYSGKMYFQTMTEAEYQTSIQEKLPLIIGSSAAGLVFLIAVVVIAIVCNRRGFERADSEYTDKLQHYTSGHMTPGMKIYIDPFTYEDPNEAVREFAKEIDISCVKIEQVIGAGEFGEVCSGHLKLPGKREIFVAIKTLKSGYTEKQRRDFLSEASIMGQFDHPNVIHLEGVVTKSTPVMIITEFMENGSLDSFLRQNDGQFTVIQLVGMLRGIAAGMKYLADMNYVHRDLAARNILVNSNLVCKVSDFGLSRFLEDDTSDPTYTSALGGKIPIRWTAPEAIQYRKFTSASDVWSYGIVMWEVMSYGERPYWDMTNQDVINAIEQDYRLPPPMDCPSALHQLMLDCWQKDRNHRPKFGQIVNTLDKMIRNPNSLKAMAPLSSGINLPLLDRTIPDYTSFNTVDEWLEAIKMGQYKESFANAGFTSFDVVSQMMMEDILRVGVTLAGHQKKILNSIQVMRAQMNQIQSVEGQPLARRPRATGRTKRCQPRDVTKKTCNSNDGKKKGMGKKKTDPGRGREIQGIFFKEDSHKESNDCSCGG
How it was run: (§1)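 Continuous-read kinase assay: chelation-sensor peptide, 1 mM ATP, compound at 1 μM. Plates kept at 30° C.; fluorescence sampled at 1-min intervals (360/485 nm).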

[2] = biological target: PRKAA2/AMPK211 (Homo sapiens, UniProt P54646)
PRKAA2/AMPK211, sequence (P54646 whole entry, species assumed): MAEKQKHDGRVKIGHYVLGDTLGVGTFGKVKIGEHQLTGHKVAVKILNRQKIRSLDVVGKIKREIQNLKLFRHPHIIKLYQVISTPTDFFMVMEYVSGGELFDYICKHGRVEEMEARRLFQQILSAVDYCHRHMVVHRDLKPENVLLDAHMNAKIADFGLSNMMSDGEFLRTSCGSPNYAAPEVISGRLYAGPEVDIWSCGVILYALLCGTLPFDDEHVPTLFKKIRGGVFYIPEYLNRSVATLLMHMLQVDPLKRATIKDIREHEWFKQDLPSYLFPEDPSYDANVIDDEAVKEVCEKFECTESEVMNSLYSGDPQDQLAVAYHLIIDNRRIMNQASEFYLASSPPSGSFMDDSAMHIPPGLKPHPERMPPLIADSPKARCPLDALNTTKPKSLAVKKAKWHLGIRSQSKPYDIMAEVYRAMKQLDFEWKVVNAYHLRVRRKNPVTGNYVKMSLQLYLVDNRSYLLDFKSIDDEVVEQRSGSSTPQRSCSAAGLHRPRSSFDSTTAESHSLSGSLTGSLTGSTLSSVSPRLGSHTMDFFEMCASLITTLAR
PRKAA2/AMPK211, sequence (Q9Y478 whole entry partner, species assumed): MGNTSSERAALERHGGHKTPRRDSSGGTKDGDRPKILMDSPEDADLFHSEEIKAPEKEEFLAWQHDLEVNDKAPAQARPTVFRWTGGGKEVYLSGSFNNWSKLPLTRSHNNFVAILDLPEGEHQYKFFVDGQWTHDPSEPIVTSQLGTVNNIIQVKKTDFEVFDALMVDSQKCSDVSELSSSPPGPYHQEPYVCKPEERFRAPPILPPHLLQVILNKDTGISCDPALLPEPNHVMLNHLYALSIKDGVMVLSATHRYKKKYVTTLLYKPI
PRKAA2/AMPK211, sequence (P54619 whole entry partner, species assumed): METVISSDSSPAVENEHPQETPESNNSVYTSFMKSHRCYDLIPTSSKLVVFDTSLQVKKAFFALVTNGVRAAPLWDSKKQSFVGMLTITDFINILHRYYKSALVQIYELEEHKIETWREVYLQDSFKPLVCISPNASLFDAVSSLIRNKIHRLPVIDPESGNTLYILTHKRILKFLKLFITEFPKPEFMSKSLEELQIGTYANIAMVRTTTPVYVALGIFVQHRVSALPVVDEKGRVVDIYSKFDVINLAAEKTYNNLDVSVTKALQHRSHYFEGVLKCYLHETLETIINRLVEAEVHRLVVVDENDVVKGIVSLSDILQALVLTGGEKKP
How it was run: as §1

[3] = biological target: T2, FYNB (Homo sapiens, UniProt P06241)
T2 construct: AssayQuant Technologies, Inc. (service provider)
How it was run: as §1

[4] = biological target: PDGFRB (Homo sapiens, UniProt P09619)
How it was run: as §1

[5] = biological target: T3, DYRK2 (Homo sapiens, UniProt Q92630)
T3 construct: AssayQuant Technologies, Inc. (service laboratory)
T3 sequence (Q92630 1-601): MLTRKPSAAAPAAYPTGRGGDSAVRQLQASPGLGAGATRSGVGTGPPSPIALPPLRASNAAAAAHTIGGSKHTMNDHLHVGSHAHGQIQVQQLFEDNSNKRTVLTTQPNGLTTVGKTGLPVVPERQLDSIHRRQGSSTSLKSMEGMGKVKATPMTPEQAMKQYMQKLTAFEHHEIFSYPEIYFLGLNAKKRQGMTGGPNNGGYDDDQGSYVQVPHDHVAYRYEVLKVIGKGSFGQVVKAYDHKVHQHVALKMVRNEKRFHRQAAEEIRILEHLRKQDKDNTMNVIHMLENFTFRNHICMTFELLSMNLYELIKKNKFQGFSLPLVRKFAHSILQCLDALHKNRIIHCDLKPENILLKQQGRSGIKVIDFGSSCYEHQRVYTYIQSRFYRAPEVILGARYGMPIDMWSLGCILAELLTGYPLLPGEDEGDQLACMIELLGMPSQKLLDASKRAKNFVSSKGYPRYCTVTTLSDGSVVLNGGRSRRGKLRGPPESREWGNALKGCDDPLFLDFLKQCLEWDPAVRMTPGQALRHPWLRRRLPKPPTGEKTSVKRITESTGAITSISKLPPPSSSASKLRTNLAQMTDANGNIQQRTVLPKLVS
How it was run: as §1

[6] = biological target: PRKACA (Homo sapiens, UniProt P17612)
How it was run: as §1

[7] = biological target: T4, CLK2 (Homo sapiens, UniProt P49760)
T4 construct: AssayQuant Technologies, Inc. (service laboratory)
T4 sequence (P49760 whole entry, species assumed): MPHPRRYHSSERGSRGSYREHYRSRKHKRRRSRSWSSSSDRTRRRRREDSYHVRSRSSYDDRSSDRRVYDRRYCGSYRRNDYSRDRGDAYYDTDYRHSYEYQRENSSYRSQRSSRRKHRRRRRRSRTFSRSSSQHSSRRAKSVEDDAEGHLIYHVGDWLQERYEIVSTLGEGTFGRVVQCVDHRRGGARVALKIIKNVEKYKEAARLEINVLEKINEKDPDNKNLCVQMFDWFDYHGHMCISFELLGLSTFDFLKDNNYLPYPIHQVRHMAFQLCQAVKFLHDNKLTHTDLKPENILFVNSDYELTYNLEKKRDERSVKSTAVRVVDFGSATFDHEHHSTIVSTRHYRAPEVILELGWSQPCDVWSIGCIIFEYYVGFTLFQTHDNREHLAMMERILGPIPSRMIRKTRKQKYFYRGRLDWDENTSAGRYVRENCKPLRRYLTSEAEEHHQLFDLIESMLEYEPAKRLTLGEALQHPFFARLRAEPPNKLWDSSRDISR
How it was run: as §1

[8] = biological target: T5, CDK6/D3 (Homo sapiens, UniProt Q00534)
T5 construct: AssayQuant Technologies, Inc. (ran the panel)
T5 sequence (Q00534 whole entry, species assumed): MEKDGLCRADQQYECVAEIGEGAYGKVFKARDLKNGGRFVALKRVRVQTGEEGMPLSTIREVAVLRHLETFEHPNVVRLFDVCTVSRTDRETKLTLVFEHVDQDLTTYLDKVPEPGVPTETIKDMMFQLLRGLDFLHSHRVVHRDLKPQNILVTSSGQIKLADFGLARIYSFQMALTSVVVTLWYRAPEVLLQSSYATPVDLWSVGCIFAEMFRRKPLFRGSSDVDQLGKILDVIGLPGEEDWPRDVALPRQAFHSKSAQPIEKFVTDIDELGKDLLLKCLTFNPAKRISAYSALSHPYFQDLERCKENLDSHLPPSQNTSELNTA
T5 sequence (P30281 whole entry partner, species assumed): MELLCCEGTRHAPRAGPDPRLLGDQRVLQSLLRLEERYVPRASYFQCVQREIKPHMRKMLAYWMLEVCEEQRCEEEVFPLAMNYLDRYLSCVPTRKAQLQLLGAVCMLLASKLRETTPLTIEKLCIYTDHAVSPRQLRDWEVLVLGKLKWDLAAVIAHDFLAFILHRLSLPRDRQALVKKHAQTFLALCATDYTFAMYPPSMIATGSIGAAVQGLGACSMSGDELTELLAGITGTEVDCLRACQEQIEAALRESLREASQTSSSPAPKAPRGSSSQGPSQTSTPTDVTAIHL
How it was run: as §1

[9] = biological target: T6, CDK2/E1 (Homo sapiens, UniProt P24941)
T6 construct: AssayQuant Technologies, Inc. (ran the panel)
How it was run: as §1

[10] = biological target: BLK (Homo sapiens, UniProt P51451)
BLK, sequence (P51451 whole entry): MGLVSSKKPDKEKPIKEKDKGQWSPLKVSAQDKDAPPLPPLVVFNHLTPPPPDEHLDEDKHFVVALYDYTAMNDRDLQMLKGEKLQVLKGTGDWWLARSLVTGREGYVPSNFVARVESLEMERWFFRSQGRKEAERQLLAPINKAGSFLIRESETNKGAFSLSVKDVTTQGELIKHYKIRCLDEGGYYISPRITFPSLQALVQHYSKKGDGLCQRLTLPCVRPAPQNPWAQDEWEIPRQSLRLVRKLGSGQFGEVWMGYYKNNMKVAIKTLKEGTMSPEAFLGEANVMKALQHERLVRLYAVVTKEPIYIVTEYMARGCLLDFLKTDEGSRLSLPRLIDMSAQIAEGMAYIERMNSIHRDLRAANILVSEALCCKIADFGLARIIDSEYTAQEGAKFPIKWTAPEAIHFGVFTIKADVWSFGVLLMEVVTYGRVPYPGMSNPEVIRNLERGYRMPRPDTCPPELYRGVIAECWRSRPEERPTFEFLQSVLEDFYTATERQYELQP
How it was run: as §1

[11] = biological target: T7, CDK5/P35 (Homo sapiens, UniProt Q00535)
T7 construct: AssayQuant Technologies, Inc. (ran the panel)
T7 sequence (Q00535 whole entry, species assumed): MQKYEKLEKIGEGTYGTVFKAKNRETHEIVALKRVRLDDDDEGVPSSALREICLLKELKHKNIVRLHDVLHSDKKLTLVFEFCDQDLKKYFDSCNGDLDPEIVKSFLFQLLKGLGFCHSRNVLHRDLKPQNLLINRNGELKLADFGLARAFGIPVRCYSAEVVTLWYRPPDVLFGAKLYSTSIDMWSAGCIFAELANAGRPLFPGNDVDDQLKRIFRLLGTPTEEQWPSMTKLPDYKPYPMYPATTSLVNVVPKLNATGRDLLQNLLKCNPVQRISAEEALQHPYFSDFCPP
T7 sequence (Q15078 2-307 partner limits assumed, species assumed): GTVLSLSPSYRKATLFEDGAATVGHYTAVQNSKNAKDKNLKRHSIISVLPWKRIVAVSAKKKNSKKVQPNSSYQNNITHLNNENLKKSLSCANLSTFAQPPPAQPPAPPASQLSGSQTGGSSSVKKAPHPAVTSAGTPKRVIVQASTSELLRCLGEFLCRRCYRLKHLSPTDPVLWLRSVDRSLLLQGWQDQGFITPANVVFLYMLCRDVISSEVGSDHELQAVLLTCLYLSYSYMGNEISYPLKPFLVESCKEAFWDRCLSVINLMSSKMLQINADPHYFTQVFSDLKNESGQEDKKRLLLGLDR
How it was run: as §1

[12] = biological target: T8, DYRK1B (Homo sapiens, UniProt Q9Y463)
T8 construct: AssayQuant Technologies, Inc. (service laboratory)
How it was run: as §1

[13] = biological target: CAMK2A (Homo sapiens, UniProt Q9UQM7)
CAMK2A, sequence (Q9UQM7 whole entry): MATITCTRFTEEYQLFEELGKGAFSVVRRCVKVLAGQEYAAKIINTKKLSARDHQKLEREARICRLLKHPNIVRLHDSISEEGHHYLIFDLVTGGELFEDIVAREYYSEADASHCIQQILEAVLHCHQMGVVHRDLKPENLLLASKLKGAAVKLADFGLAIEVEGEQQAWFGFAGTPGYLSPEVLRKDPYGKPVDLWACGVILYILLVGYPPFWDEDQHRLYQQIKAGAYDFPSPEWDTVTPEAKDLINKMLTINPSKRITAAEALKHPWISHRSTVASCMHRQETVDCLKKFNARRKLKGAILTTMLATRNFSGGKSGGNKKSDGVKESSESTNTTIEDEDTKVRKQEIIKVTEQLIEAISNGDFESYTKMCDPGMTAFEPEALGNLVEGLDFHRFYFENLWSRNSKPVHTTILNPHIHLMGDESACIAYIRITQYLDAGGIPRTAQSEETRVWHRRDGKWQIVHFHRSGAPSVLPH
How it was run: as §1

[14] = biological target: T9, CDK9/T1 (Homo sapiens, UniProt P50750)
T9 construct: AssayQuant Technologies, Inc. (ran the panel)
How it was run: as §1

[15] = biological target: T10, GRK5 (Homo sapiens, UniProt P34947)
T10 construct: AssayQuant Technologies, Inc. (service provider)
T10 sequence (P34947 whole entry, species assumed): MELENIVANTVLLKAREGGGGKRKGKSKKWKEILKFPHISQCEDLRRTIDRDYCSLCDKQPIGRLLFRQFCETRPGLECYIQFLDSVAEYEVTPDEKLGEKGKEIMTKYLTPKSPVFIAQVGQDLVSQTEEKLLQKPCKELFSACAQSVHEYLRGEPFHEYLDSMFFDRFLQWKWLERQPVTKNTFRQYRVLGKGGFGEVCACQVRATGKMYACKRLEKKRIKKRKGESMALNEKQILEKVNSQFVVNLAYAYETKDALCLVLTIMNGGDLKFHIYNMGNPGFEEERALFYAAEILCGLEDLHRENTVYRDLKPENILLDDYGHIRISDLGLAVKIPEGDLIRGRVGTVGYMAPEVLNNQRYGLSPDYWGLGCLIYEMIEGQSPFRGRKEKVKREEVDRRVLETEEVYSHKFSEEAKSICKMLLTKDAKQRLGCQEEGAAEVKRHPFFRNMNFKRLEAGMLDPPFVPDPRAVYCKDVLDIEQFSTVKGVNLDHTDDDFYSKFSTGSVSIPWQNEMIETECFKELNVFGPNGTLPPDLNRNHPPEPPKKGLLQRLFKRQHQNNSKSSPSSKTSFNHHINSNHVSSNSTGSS
How it was run: as §1

SMILES | inhibition at 1 µM [1] [%] | inhibition at 1 µM [2] [%] | inhibition at 1 µM [3] [%] | inhibition at 1 µM [4] [%] | inhibition at 1 µM [5] [%] | inhibition at 1 µM [6] [%] | inhibition at 1 µM [7] [%] | inhibition at 1 µM [8] [%] | inhibition at 1 µM [9] [%] | inhibition at 1 µM [10] [%] | inhibition at 1 µM [11] [%] | inhibition at 1 µM [12] [%] | inhibition at 1 µM [13] [%] | inhibition at 1 µM [14] [%] | inhibition at 1 µM [15] [%]
C=CC(=O)N1CCCC(c2c(F)cc(C(N)=O)c3[nH]c4c(c23)CCCCC4)C1 (single isomer, unassigned) [Compound 5-6] | 21.3 | -24.4 | 21 | -52.9 | 6.1 | 11.4 | 0.7 | -8 | -7.3 | 30.3 | -13.2 | 16.1 | 4.9 | -11 | -8.8
C=CC(=O)N1CCC[C@@H](c2c(F)cc(C(N)=O)c3[nH]c4c(c23)CCC4)C1 [Compound 10-2, (S)-8-(1-acryloylpiperidin-3-yl)-7-fluoro-1,2,3,4-tetrahydrocyclo-penta[b]indole-5-carboxamide] | 0.9 | 36.6 | -36.2 | 4.7 | 0.3 | 1 | -3.2 | -18.4 | 7 | -2.3 | 2.9 | 6.6 | 14.7 | -26.7 | -2.2
C=CC(=O)N1CCC[C@@H](c2c(F)cc(C(N)=O)c3[nH]c4c(c23)CC2(CC4)CC2)C1 [Compound 6-2, (S)-5-(1-acryloylpiperidin-3-yl)-6-fluoro-1,2,4,9-tetrahydrospiro[carbazole-3,1′-cyclopropane]-8-carboxamide] | 11.8 | 28.8 | -20 | 23.2 | 13.3 | 12.2 | -4.6 | -6.1 | -12.9 | 65.7 | -37.5 | -0.2 | 35.8 | -9.9 | -114
